According to the supplement of paper PMC10307832:

Legend:
Test in all cases: relative viability (nuclei count vs DMSO), 5 days (fraction); higher = more cells survive
Quizartinib + Pemetrexed = compound: CC(C)(C)c1cc(NC(=O)Nc2ccc(-c3cn4c(n3)sc3cc(OCCN5CCOCC5)ccc34)cc2)no1 [Quizartinib] + Nc1nc2[nH]cc(CCc3ccc(C(=O)N[C@@H](CCC(=O)O)C(=O)O)cc3)c2c(=O)[nH]1 [Pemetrexed] (partner 0.2 µM)
Outline: (§1)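 Lung cancer cell lines, seeded in 1536-well plates, were treated the following day by pin tool with a single drug or with five library-drug doses (not always all listed) in √10 steps on top of a fixed anchor-drug dose. Cells were fixed and nuclei stained in one step after 5 days, and nuclei were counted. Relative viability is the nuclei count for treated wells divided by that for vehicle wells, reported as medians of duplicate plates.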

YM155 + OSI-027 = compound: COCC[n+]1c2c(n(Cc3cnccn3)c1C)C(=O)c1ccccc1C2=O [YM155] + COc1cccc2cc(-c3nc([C@H]4CC[C@H](C(=O)O)CC4)n4ncnc(N)c34)[nH]c12 [OSI-027] (partner 0.5 µM)
Outline: as §1

YM155 + Decitabine = compound: COCC[n+]1c2c(n(Cc3cnccn3)c1C)C(=O)c1ccccc1C2=O [YM155] + Nc1ncn([C@H]2C[C@H](O)[C@@H](CO)O2)c(=O)n1 [Decitabine] (partner 2 µM)
Outline: as §1

YM155 + Olaparib = compound: COCC[n+]1c2c(n(Cc3cnccn3)c1C)C(=O)c1ccccc1C2=O [YM155] + O=C(c1cc(Cc2n[nH]c(=O)c3ccccc23)ccc1F)N1CCN(C(=O)C2CC2)CC1 [Olaparib] (partner 8 µM)
Outline: as §1

Cell Line	relative viability (Quizartinib + Pemetrexed; first compound 0.001 µM)	relative viability (Quizartinib + Pemetrexed; first compound 0.003162 µM)	relative viability (Quizartinib + Pemetrexed; first compound 0.01 µM)	relative viability (Quizartinib + Pemetrexed; first compound 0.03162 µM)	relative viability (Quizartinib + Pemetrexed; first compound 0.1 µM)	relative viability (YM155 + OSI-027; first compound 0.002 µM)	relative viability (YM155 + OSI-027; first compound 0.006325 µM)	relative viability (YM155 + OSI-027; first compound 0.02 µM)	relative viability (YM155 + OSI-027; first compound 0.06325 µM)	relative viability (YM155 + Decitabine; first compound 0.002 µM)	relative viability (YM155 + Decitabine; first compound 0.006325 µM)	relative viability (YM155 + Decitabine; first compound 0.02 µM)	relative viability (YM155 + Decitabine; first compound 0.06325 µM)	relative viability (YM155 + Olaparib; first compound 0.002 µM)	relative viability (YM155 + Olaparib; first compound 0.006325 µM)	relative viability (YM155 + Olaparib; first compound 0.02 µM)	relative viability (YM155 + Olaparib; first compound 0.06325 µM)
HCC-44	0.572	0.665	0.655	0.65	0.606	0.45	0.608	0.58	0.304	0.936	1	0.929	0.964	0.969	1.03	0.992	1.04
HCC-78	0.915	0.882	0.968	0.869	0.917	0.361	0.379	0.385	0.383	0.647	0.751	0.739	0.741	0.882	0.865	0.807	1
HCC-366	0.148	0.148	0.129	0.165	0.178	1.08	0.767	1.01	0.945	0.358	0.366	0.345	0.316	0.368	0.329	0.375	0.275
HCC-827	0.237	0.249	–	0.24	0.276	0.678	0.805	0.76	0.842	0.352	0.408	0.299	0.354	0.708	0.649	0.654	0.702
HOP-62	0.3	0.248	0.315	0.325	0.323	0.807	0.847	0.899	0.864	0.221	0.242	0.235	0.214	0.668	0.35	0.419	0.29
LC-2-ad	0.275	0.285	0.268	0.269	0.233	0.804	0.917	0.773	0.621	0.773	0.788	0.742	0.706	0.718	0.685	0.695	0.617
LCLC-97TM1	0.178	0.177	0.195	0.184	0.191	0.442	0.539	0.548	0.469	–	0.178	0.202	0.254	–	0.321	0.311	0.376
LCLC-103H	0.419	0.485	0.484	0.464	0.493	0.465	0.436	0.408	0.464	0.747	0.735	0.731	0.716	0.738	0.845	0.77	0.801
LK-2	0.262	0.301	0.285	0.248	0.336	0.187	0.21	0.214	0.201	0.29	0.14	0.341	0.362	0.644	0.71	0.797	0.75
LOU-NH91	0.394	0.397	0.386	0.377	0.436	0.689	0.751	0.757	0.762	0.766	0.812	0.852	0.831	0.894	0.874	0.921	0.745
LU99A	0.206	0.189	0.179	0.189	0.183	0.285	0.274	0.322	0.28	0.84	0.808	0.824	0.936	0.269	0.236	0.255	0.262
LXF-289	0.789	0.827	1	0.83	0.867	0.723	0.856	0.767	0.785	0.354	0.39	0.371	0.379	0.984	1.04	1.04	0.947
NCI-H23	0.6	0.62	0.639	0.593	0.635	0.498	0.66	0.599	0.522	–	0.278	0.291	0.363	–	0.323	0.294	0.235
NCI-H322M	0.6	0.662	0.639	0.62	0.703	0.58	0.525	0.533	0.581	0.689	0.722	0.7	0.753	0.719	0.815	0.706	0.734
NCI-H358	0.164	0.148	0.223	–	0.155	0.684	0.981	0.887	0.552	0.257	0.2	0.199	0.22	0.574	0.625	0.529	0.156
NCI-H441	0.261	0.267	0.247	0.255	0.287	0.468	0.496	0.537	0.381	0.277	0.243	0.248	0.189	0.597	0.524	0.518	0.299
NCI-H460	–	0.058	0.0614	–	0.073	0.584	0.769	0.757	0.694	0.496	0.503	0.477	0.475	0.411	0.444	0.417	0.384
NCI-H520	–	0.557	0.745	0.714	0.477	0.244	0.242	0.29	0.326	0.469	0.531	0.531	0.397	0.362	0.441	0.379	0.294
NCI-H522	0.948	0.984	0.934	0.948	1.01	0.752	0.599	0.715	0.753	0.72	0.664	0.684	0.668	0.727	0.646	0.594	0.612
